Data taken from publication PMC9841532, “Exploring the Effect of Halogenation in a Series of Potent and Selective A2B Adenosine Receptor Antagonists” (Journal of Medicinal Chemistry, 2022).
Like-named read-outs stand apart in the source and are kept apart here.

Assays:
hA1AR = target: T1, hA1AR (Homo sapiens, UniProt P30542); test: Radioligand binding competition, [3H]DPCPX, membranes from CHO-A1 cells; conditions: 1 μM, [3H]DPCPX, human CHO cells, n = 2
T1 sequence (P30542 1-326): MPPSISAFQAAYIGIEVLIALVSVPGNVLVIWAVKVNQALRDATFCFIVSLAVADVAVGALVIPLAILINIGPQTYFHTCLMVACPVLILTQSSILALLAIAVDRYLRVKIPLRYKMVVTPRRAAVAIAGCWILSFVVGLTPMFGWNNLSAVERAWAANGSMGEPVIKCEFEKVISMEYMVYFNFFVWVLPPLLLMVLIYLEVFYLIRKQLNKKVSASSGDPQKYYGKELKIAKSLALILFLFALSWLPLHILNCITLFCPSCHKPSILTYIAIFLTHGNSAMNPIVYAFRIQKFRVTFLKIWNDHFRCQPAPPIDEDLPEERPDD
Protocol: (§1) All ligands reported in Tables 1–5 were obtained and tested as racemic mixtures. The whole set was evaluated in silico with a combination of a Rdkit[37] PAINS filter and Instant JChem from Chemaxon (https://www.chemaxon.com), to rule out the possibility that these ligands can be promiscuous pan-assay interference compounds (PAINS) and to assess their bioavailability, respectively. […] The stereoisomers of selected compounds were obtained by chiral resolution and tested at the four human AR subtypes in their enantiopure forms (Table 6).
(§2) A brief description is given below. […] Non-specific binding was determined in the presence of 10 μM R-PIA. The reaction mixture was incubated at 25 °C for 60 min. […] The reaction mixture was incubated at 25 °C for 30 min. […] The reaction mixture was incubated at 25 °C for 30 min. […] Non-specific binding was determined in the presence of 100 μM R-PIA. […] After the incubation time, membranes were washed and filtered and radioactivity was detected in a MicroBeta TriLux reader (PerkinElmer).

hA2AAR = target: T2, hA2AAR (Homo sapiens, UniProt P29274); test: Radioligand binding competition, [3H]ZM241385, membranes from HeLa-A2A cells; conditions: 1 μM, [3H]ZM241385, human HeLa cells, n = 2
T2 construct: expressed in transfected cells; host or cells: HeLa (HeLa-A2A) cell membranes
Protocol: as §1, §2

hA2BAR = target: T3, hA2BAR (Homo sapiens, UniProt P29275); test: Radioligand binding competition, [3H]DPCPX, membranes from HEK-293-A2B cells; design: Exp. dG: unit not given here; conditions: for % at 1 μM hA2B (percentage displacement of specific binding): [3H]DPCPX, human HEK-293 cells, n = 2; for Ki: read-out: Ki hA2B; for Exp. dG: experimental binding free energy, Supplementary Table S3, unit not given (errors in kcal/mol)
T3 construct: host or cells: HEK-293 (HEK-293-A2B) cell membranes
T3 sequence (P29275 1-332): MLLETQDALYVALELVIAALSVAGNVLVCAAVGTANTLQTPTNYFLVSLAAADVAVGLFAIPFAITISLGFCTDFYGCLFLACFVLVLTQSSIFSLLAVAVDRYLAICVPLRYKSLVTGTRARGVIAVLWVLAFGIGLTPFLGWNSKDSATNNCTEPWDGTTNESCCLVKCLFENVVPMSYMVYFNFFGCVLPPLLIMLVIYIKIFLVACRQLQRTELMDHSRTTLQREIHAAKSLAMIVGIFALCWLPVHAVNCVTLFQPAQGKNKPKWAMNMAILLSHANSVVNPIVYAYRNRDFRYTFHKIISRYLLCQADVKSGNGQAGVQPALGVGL
Protocol: as §1, §2

hA3AR = target: T4, hA3AR (Homo sapiens, UniProt P0DMS8); test: Radioligand binding competition, [3H]NECA, membranes from HeLa-A3 cells; conditions: 1 μM, [3H]NECA, human HeLa cells, n = 2
T4 construct: expressed in transfected cells; host or cells: HeLa (HeLa-A3) cell membranes
T4 sequence (P0DMS8 1-318): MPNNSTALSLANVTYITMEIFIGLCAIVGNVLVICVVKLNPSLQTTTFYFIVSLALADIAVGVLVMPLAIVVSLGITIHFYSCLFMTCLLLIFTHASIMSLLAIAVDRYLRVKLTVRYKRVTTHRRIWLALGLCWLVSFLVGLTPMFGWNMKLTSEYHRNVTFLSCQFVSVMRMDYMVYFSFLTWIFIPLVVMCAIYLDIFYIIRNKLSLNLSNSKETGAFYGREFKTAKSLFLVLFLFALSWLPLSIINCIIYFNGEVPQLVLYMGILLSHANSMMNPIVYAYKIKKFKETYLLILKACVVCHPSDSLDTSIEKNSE
Protocol: as §1, §2

[1] = displacement of specific [3H]DPCPX binding in human HEK-293 cells, n = 3

T2 sequence (P29274 whole entry): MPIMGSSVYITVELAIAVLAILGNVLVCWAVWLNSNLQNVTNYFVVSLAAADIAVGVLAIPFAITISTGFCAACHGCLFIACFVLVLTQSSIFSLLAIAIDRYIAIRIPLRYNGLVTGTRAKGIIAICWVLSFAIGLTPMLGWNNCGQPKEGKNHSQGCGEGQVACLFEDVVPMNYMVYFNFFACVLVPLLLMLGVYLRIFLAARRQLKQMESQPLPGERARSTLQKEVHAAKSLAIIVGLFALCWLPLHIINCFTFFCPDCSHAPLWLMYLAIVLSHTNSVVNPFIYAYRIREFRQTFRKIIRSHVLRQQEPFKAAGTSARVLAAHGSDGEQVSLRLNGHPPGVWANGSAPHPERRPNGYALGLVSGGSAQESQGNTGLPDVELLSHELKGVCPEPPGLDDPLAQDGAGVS

| SMILES | % at 1 μM hA1 (percentage displacement of specific binding) (hA1AR) | % at 1 μM hA2A (percentage displacement of specific binding) (hA2AAR) | % at 1 μM hA2B (percentage displacement of specific binding) (hA2BAR) | % at 1 μM hA3 (percentage displacement of specific binding) (hA3AR) | Ki (hA2BAR; [1]) | Exp. dG (hA2BAR) | Ki (hA2BAR) |
| --- | --- | --- | --- | --- | --- | --- | --- |
| CC1=C(C(=O)OC(C)C)C(c2ccsc2)n2c(nc3cc(Br)c(Br)cc32)N1 (stereo not drawn) [14x] | 4% | 1% | 9% | 8% |  |  |  |
| CCOC(=O)C1=C(C)Nc2nc3ccc(F)cc3n2C1c1ccco1 (stereo not drawn) [15a] | 16% | 2% |  | 10% | 67.5 ± 3.1 nM | -9.777 |  |
| CC1=C(C(=O)OC(C)C)C(c2ccco2)n2c(nc3ccc(F)cc32)N1 (stereo not drawn) [15b] | 32% | 3% |  | 5% | 12.2 ± 1.2 nM | -10.79 |  |
| CCOC(=O)C1=C(C)Nc2nc3ccc(F)cc3n2C1c1ccoc1 (stereo not drawn) [15c] | 26% | 21% |  | 5% | 25 ± 1.5 nM | -9.361 |  |
| CC1=C(C(=O)OC(C)C)C(c2ccoc2)n2c(nc3ccc(F)cc32)N1 (stereo not drawn) [15d] | 25% | 11% |  | 6% | 136 ± 7 nM | -10.36 |  |
| CCOC(=O)C1=C(C)Nc2nc3ccc(F)cc3n2C1c1cccs1 (stereo not drawn) [15e] | 25% | 1% | 37% | 11% |  |  |  |
| CC1=C(C(=O)OC(C)C)C(c2cccs2)n2c(nc3ccc(F)cc32)N1 (stereo not drawn) [15f] | 11% | 2% | 23% | 6% |  |  |  |
| CCOC(=O)C1=C(C)Nc2nc3ccc(F)cc3n2C1c1ccsc1 (stereo not drawn) [15g] | 7% | 1% |  | 3% | 1030 ± 95 nM | -8.162 |  |
| CC1=C(C(=O)OC(C)C)C(c2ccsc2)n2c(nc3ccc(F)cc32)N1 (stereo not drawn) [15h] | 1% | 1% |  | 1% | 764 ± 11 nM | -8.34 |  |
| CCOC(=O)C1=C(C)Nc2nc3ccc(Cl)cc3n2C1c1ccco1 (stereo not drawn) [15i] | 26% | 2% | 18% | 4% |  |  |  |
| CCOC(=O)C1=C(C)Nc2nc3ccc(Cl)cc3n2C1c1ccoc1 (stereo not drawn) [15k] | 22% | 30% |  | 3% | 47.3 ± 1.9 nM | -9.987 | ~45 nM |
| CC1=C(C(=O)OC(C)C)C(c2ccoc2)n2c(nc3ccc(Cl)cc32)N1 (stereo not drawn) [15l] | 6% | 4% | 50% | 3% |  |  |  |
| CCOC(=O)C1=C(C)Nc2nc3ccc(Cl)cc3n2C1c1cccs1 (stereo not drawn) [15m] | 2% | 3% | 1% | 1% |  |  |  |
| CC1=C(C(=O)OC(C)C)C(c2cccs2)n2c(nc3ccc(Cl)cc32)N1 (stereo not drawn) [15n] | 1% | 3% | 7% | 1% |  |  |  |
| CCOC(=O)C1=C(C)Nc2nc3ccc(Cl)cc3n2C1c1ccsc1 (stereo not drawn) [15o] | 4% | 2% | 50% | 3% |  |  |  |
| CC1=C(C(=O)OC(C)C)C(c2ccsc2)n2c(nc3ccc(Cl)cc32)N1 (stereo not drawn) [15p] | 7% | 9% | 48% | 3% |  |  |  |
| CCOC(=O)C1=C(C)Nc2nc3ccc(Br)cc3n2C1c1ccco1 (stereo not drawn) [15q] | 22% | 21% | 48% | 5% |  |  |  |
| CC1=C(C(=O)OC(C)C)C(c2ccco2)n2c(nc3ccc(Br)cc32)N1 (stereo not drawn) [15r] | 46% | 1% |  | 6% | 273 ± 4 nM |  | ~45 nM |
| CCOC(=O)C1=C(C)Nc2nc3ccc(Br)cc3n2C1c1ccoc1 (stereo not drawn) [15s] | 10% | 1% |  | 19% | 318 ± 6 nM |  | ~45 nM |
| CC1=C(C(=O)OC(C)C)C(c2ccoc2)n2c(nc3ccc(Br)cc32)N1 (stereo not drawn) [15t] | 11% | 3% | 26% | 12% |  |  |  |
| CCOC(=O)C1=C(C)Nc2nc3ccc(Br)cc3n2C1c1cccs1 (stereo not drawn) [15u] | 1% | 5% | 1% | 4% |  |  |  |
| CC1=C(C(=O)OC(C)C)C(c2cccs2)n2c(nc3ccc(Br)cc32)N1 (stereo not drawn) [15v] | 1% | 6% | 11% | 8% |  |  |  |
| CCOC(=O)C1=C(C)Nc2nc3ccc(Br)cc3n2C1c1ccsc1 (stereo not drawn) [15w] | 4% | 3% | 43% | 3% |  |  |  |
| CC1=C(C(=O)OC(C)C)C(c2ccsc2)n2c(nc3ccc(Br)cc32)N1 (stereo not drawn) [15x] | 1% | 1% | 10% | 1% |  |  |  |
| CCOC(=O)C1=C(C)Nc2nc3cc(F)ccc3n2C1c1ccco1 (stereo not drawn) [16a] | 10% | 29% |  | 2% | 6.6 ± 1 nM | -11.15 | < 10 nM |
| CCOC(=O)C1=C(C)Nc2nc3cc(F)ccc3n2C1c1ccoc1 (stereo not drawn) [16c] | 29% | 21% |  | 2% | 13.7 ± 0.9 nM | -10.72 |  |
